Measured values from patent US11673883B2, “Heterocyclic compounds as immunomodulators” (Incyte Corporation, priority 2016, dated 2023).

Target: PD-1/PD-L1 protein/protein interaction (Homo sapiens (Human), UniProt Q9NZQ7)
Test: PD-1/PD-L1 Homogeneous Time-Resolved Fluorescence (HTRF) Binding Assay
Conditions: recombinant human PD-L1 (19-238) His-tag, human PD-1 (25-167) Fc tag; 25° C., PBS pH 7.4
Method: Example A. PD-1/PD-L1 Homogeneous Time-Resolved Fluorescence (HTRF) Binding Assay
The assays were conducted in a standard black 384-well polystyrene plate with a final volume of 20 μL. Inhibitors were first serially diluted in DMSO and then added to the plate wells before the addition of other reaction components. The final concentration of DMSO in the assay was 1%. The assays were carried out at 25° C. in the PBS buffer (pH 7.4) with 0.05% Tween-20 and 0.1% BSA. Recombinant human PD-L1 protein (19-238) with a His-tag at the C-terminus was purchased from AcroBiosystems (PD1-H5229). Recombinant human PD-1 protein (25-167) with Fc tag at the C-terminus was also purchased from AcroBiosystems (PD1-H5257). PD-L1 and PD-1 proteins were diluted in the assay buffer and […] was added to the plate well. Plates were centrifuged and proteins were preincubated with inhibitors for 40 minutes. The incubation was followed by the addition of 10 μL of HTRF detection buffer supplemented with Europium cryptate-labeled anti-human IgG (PerkinElmer-AD0212) specific for Fc and anti-His antibody conjugated to SureLight®-Allophycocyanin (APC, PerkinElmer-AD0059H). After centrifugation, the plate was incubated at 25° C. for 60 min. before reading on a PHERAstar FS plate reader (665 nm/620 nm ratio). Final concentrations in the assay were […], 10 nM PD-L1, 1 nM europium anti-human IgG and 20 nM anti-His-Allophycocyanin. IC50 determination was performed by fitting the curve of percent control activity versus the log of the inhibitor concentration using the GraphPad Prism 5.0 software.

PD-1/PD-L1 protein/protein interaction, sequence (Q9NZQ7 19-238): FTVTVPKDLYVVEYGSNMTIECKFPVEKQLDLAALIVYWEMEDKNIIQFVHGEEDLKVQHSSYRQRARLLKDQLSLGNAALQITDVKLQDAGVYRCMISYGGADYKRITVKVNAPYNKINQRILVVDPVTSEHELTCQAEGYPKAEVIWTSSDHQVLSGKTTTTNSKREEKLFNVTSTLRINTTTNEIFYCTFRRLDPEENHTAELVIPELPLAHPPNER

| IC50 | SMILES |
| --- | --- |
| ≤ 100 nM | N#Cc1c(-c2ccc3c(c2)OCCO3)cccc1N1CCC(NC2CC2)CC1 [Example 2, 2-(4-(cyclopropylamino)piperidin-1-yl)-6-(2,3-dihydrobenzo[b][1,4]dioxin-6-yl)benzonitrile] |
| ≤ 100 nM | Cc1c(-c2ccccc2)cccc1N1CCC(NC2CCC(C(=O)O)(c3ccc(Cl)cc3)CC2)CC1 (single isomer, unassigned) [47 (peak 1), 1-(4-chlorophenyl)-4-(1-(2-methylbiphenyl-3-yl)piperidin-4-ylamino)cyclohexane carboxylic acid] |
| ≤ 100 nM | CO[C@H]1C[C@H](NC2CCN(c3cccc(-c4ccc5c(c4)OCCO5)c3C#N)CC2)C1 [Example 13, 2-(2,3-dihydrobenzo[b][1,4]dioxin-6-yl)-6-(4-(trans-3-methoxycyclobutylamino)piperidin-1-yl)benzonitrile] |
| ≤ 100 nM | Cc1c(-c2ccccc2)cccc1N1CCC(N[C@H]2C[C@@H](O)C2)CC1 [Example 29, cis-3-(1-(2-methylbiphenyl-3-yl)piperidin-4-ylamino)cyclobutanol] |
| ≤ 100 nM | Cc1c(-c2ccccc2)cccc1N1CCC(NC2CCC(C(=O)O)CC2)CC1 (single isomer, unassigned) [41 (peak 1), 4-(1-(2-methylbiphenyl-3-yl)piperidin-4-ylamino)cyclohexane-carboxylic acid] |
| ≤ 100 nM | Cc1c(-c2ccccc2)cccc1N1CCC(NC2CC2)CC1 [Example 36, N-cyclopropyl-1-(2-methylbiphenyl-3-yl)piperidin-4-amine] |
| ≤ 100 nM | Cc1c(-c2ccccc2)cccc1N1CCC(NC2CCCC(C(=O)O)C2)CC1 (single isomer, unassigned) [46 (peak 2), 3-(1-(2-methylbiphenyl-3-yl)piperidin-4-ylamino)cyclohexane carboxylic acid] |
| ≤ 100 nM | Cc1c(-c2ccccc2)cccc1N1CCC(NC2CCCC2)CC1 [Example 37, N-cyclopentyl-1-(2-methylbiphenyl-3-yl)piperidin-4-amine] |
| ≤ 100 nM | N#Cc1c(-c2ccc3c(c2)OCCO3)cccc1N1CCC(N2CCC(CO)C2)CC1 (stereo not shown) [Example 25, 2-(2,3-dihydrobenzo[b][1,4]dioxin-6-yl)-6-(4-(3-(hydroxymethyl)pyrrolidin-1-yl)piperidin-1-yl)benzonitrile] |
| 100 to 500 nM | Cc1c(-c2ccccc2)cccc1N1CCC(NCC(=O)N2CCN(C(C)C)CC2)CC1 [Example 27, 1-(4-isopropylpiperazin-1-yl)-2-(1-(2-methylbiphenyl-3-yl)piperidin-4-ylamino)ethanone] |
| ≤ 100 nM | Cc1c(-c2ccccc2)cccc1N1CCC(NC2CCc3c(c(C(=O)O)nn3C)C2)CC1 (racemic) [Example 38, 1-methyl-5-(1-(2-methylbiphenyl-3-yl)piperidin-4-ylamino)-4,5,6,7-tetrahydro-1H-indazole-3-carboxylic acid] |
| ≤ 100 nM | CC(C)(CO)CNC1CCN(c2cccc(-c3ccc4c(c3)OCCO4)c2C#N)CC1 [Example 6, 2-(2,3-dihydrobenzo[b][1,4]dioxin-6-yl)-6-(4-(3-hydroxy-2,2-dimethylpropylamino)piperidin-1-yl)benzonitrile] |
| ≤ 100 nM | Cc1c(-c2ccccc2)cccc1N1CCC(NC2CCCC(C(=O)O)C2)CC1 (single isomer, unassigned) [46 (peak 1), 3-(1-(2-methylbiphenyl-3-yl)piperidin-4-ylamino)cyclohexane carboxylic acid] |
| ≤ 100 nM | Cc1c(-c2ccccc2)cccc1N1CCC(N[C@H]2C[C@H](O)C2)CC1 [Example 28, trans-3-(1-(2-methylbiphenyl-3-yl)piperidin-4-ylamino)cyclobutanol] |
| ≤ 100 nM | Cc1c(-c2ccccc2)cccc1N1CCC(NC2CCC(C(=O)O)(c3ccc(Cl)cc3)CC2)CC1 (single isomer, unassigned) [47 (peak 2), 1-(4-chlorophenyl)-4-(1-(2-methylbiphenyl-3-yl)piperidin-4-ylamino)cyclohexane-carboxylic acid] |
| ≤ 100 nM | N#Cc1c(-c2ccc3c(c2)OCCO3)cccc1N1CCC(N[C@H]2C[C@@H](CO)C2)CC1 [Example 8, 2-(2,3-dihydrobenzo[b][1,4]dioxin-6-yl)-6-(4-(cis-3-(hydroxymethyl)cyclobutyl-amino)piperidin-l-yl)benzonitrile] |
| ≤ 100 nM | CC1(NC2CCN(c3cccc(-c4ccc5c(c4)OCCO5)c3C#N)CC2)CC1 [Example 22, 2-(2,3-dihydrobenzo[b][1,4]dioxin-6-yl)-6-(4-(1-methylcyclopropylamino)piperidin-1-yl)benzonitrile] |

| IC50 | SMILES |
| --- | --- |
| ≤ 100 nM | Cc1c(-c2ccccc2)cccc1N1CCC(NCCc2cnn(C)c2)CC1 [Example 31, N-(2-(1-methyl-1H-pyrazol-4-yl)ethyl)-1-(2-methylbiphenyl-3-yl)piperidin-4-amine] |
| ≤ 100 nM | Cc1c(-c2ccccc2)cccc1N1CCC(N[C@H]2CCC[C@H]2CO)CC1 (relative stereo) [Example 34, (cis-2-(1-(2-methylbiphenyl-3-yl)piperidin-4-ylamino)cyclopentyl) methanol] |
| ≤ 100 nM | N#Cc1c(-c2ccc3c(c2)OCCO3)cccc1N1CCC(NCC2(CO)CC2)CC1 [Example 4, 2-(2,3-dihydrobenzo[b][1,4]dioxin-6-yl)-6-(4-((l-(hydroxymethyl)cyclopropyl)methylamino)piperidin-1-yl)benzonitrile] |
| ≤ 100 nM | COCC(C)NC1CCN(c2cccc(-c3ccccc3)c2C)CC1 (racemic) [Example 44, N-(1-methoxypropan-2-yl)-1-(2-methylbiphenyl-3-yl)piperidin-4-amine] |
| ≤ 100 nM | N#Cc1c(-c2ccc3c(c2)OCCO3)cccc1N1CCC(N2CCC(CCO)C2)CC1 (stereo not shown) [Example 15, 2-(2,3-dihydrobenzo[b][1,4]dioxin-6-yl)-6-(4-(3-(2-hydroxyethyl)pyrrolidin-1-yl)piperidin-1-yl)benzonitrile] |
| ≤ 100 nM | Cc1c(-c2ccccc2)cccc1N1CCC(N[C@H]2CC[C@@H](O)CC2)CC1 [Example 33, cis-4-(1-(2-methylbiphenyl-3-yl)piperidin-4-ylamino)cyclohexanol] |
| ≤ 100 nM | N#Cc1c(C2=CCCCC2)cccc1N1CCC(N2CCCC2)CC1 [Example 50, 2-cyclohexenyl-6-(4-(pyrrolidin-1-yl)piperidin-1-yl)benzonitrile] |
| ≤ 100 nM | N#Cc1c(-c2ccc3c(c2)OCCO3)cccc1N1CCC(NC[C@@H]2CCCC[C@@H]2O)CC1 (relative stereo) [Example 19, 2-(2,3-dihydro-1,4-benzodioxin-6-yl)-6-[4-({[cis-2-hydroxycyclohexyl]methyl}amino)piperidin-1-yl]benzonitrile] |
| ≤ 100 nM | N#Cc1c(-c2ccc3c(c2)OCCO3)cccc1N1CCC(N[C@H]2C[C@H](CO)C2)CC1 [Example 23, 2-(2,3-dihvdrobenzo[b][1,4]dioxin-6-yl)-6-(4-(trans-3-(hydroxymethyl)cyclobutyl-amino)piperidin-1-yl)benzonitrile] |
| ≤ 100 nM | N#Cc1c(-c2ccc3c(c2)OCCO3)cccc1N1CCC(NC2CC3(CCC3)C2)CC1 [Example 10, 2-(2,3-dihydrobenzo[b][1,4]dioxin-6-yl)-6-(4-(spiro[3.3]heptan-2-ylamino)piperidin-l-yl)benzonitrile] |
| 100 to 500 nM | CN(C)C1CCN(c2cccc(-c3ccc4c(c3)OCCO4)c2C#N)CC1 [Example 3, 2-(2,3-dihydrobenzo[b][1,4]dioxin-6-yl)-6-(4-(dimethylamino)piperidin-1-yl)benzonitrile] |
| ≤ 100 nM | Cc1c(-c2ccccc2)cccc1N1CCC(NC2CCC(C#N)CC2)CC1 (single isomer, unassigned) [40 (peak 1), 4-(1-(2-methylbiphenyl-3-yl)piperidin-4-ylamino)cyclohexane-carbonitrile] |
| ≤ 100 nM | CC[C@H](CO)NC1CCN(c2cccc(-c3ccccc3)c2C)CC1 [Example 35, (R)-2-(1-(2-methylbiphenyl-3-yl)piperidin-4-ylamino)butan-l-ol] |
| ≤ 100 nM | Cc1c(-c2ccccc2)cccc1N1CCC(NC2CCC(C(=O)O)CC2)CC1 (single isomer, unassigned) [41 (peak 2), 4-(1-(2-methylbiphenyl-3-yl)piperidin-4-ylamino)cyclohexane-carboxylic acid] |
| ≤ 100 nM | COc1ccc(C2(CNC3CCN(c4cccc(-c5ccc6c(c5)OCCO6)c4C#N)CC3)CCOCC2)cc1 [Example 11, 2-(2,3-dihydrobenzo[b][1,4]dioxin-6-yl)-6-(4-((4-(4-methoxyphenyl)tetrahydro-2H-pyran-4-yl)methylamino)piperidin-1-yl)benzonitrile] |
| ≤ 100 nM | N#Cc1c(-c2cccc(F)c2)cccc1N1CCC(N2CCCC2)CC1 [Example 49, 3′-fluoro-3-(4-(pyrrolidin-1-yl)piperidin-1-yl)biphenyl-2-carbonitrile] |
| ≤ 100 nM | C[C@@H]1CN(C2CCN(c3cccc(-c4ccc5c(c4)OCCO5)c3C#N)CC2)C[C@H]1CO (relative stereo) [Example 9, 2-(2,3-dihydrobenzo[b][1,4]dioxin-6-yl)-6-(4-(trans-3-(hydroxymethyl)-4-methylpyrrolidin-1-yl)piperidin-1-yl)benzonitrile] |
